Earlier results on one molecule are cited in patent US20260335248A1, “ANTIFUNGAL AGENT ENCAPSULATED IN A LIPID NANOCRYSTAL FOR TREATING MUCORMYCOSIS” (MATINAS BIOPHARMA NANOTECHNOLOGIES, INC., priority 2022, published 2026).

For the series, the system named is mucormycosis. The conditions noted are these: Luo et al., 2013.

As for `CC[C@@H]([C@H](C)O)n1ncn(-c2ccc(N3CCN(c4ccc(OC[C@@H]5CO[C@@](Cn6cncn6)(c6ccc(F)cc6F)C5)cc4)CC3)cc2)c1=O` [Posaconazole, posaconazole], the “fungal burdens in lungs and brain compared with placebo” value is “effective in reducing the fungal burdens in lungs and brain”.
